The target of assay [1] is T1, Sodium-dependent dopamine transporter (Rattus norvegicus, UniProt P23977). Kind of assay: Inhibitory binding activity against rat striatal tissue using [3H][…] as the radioligand. In kind it is tissue-based, Striatum.
Assay [2] has as its target T1, Sodium-dependent dopamine transporter. Kind of assay: Inhibition of dopamine uptake into rat striatal tissue, using [3H]- dopamine as the radioligand. In kind it is tissue-based, Striatum.
The target of assay [3] is Sodium-dependent dopamine transporter (Rattus norvegicus) (UniProt P23977). Kind of assay: Discrimination ratio of compound is the ratio of inhibitory activity against [3H]dopamine uptake over [3H][…] binding.
Sequence of Sodium-dependent dopamine transporter (Rattus norvegicus) (P23977 whole entry): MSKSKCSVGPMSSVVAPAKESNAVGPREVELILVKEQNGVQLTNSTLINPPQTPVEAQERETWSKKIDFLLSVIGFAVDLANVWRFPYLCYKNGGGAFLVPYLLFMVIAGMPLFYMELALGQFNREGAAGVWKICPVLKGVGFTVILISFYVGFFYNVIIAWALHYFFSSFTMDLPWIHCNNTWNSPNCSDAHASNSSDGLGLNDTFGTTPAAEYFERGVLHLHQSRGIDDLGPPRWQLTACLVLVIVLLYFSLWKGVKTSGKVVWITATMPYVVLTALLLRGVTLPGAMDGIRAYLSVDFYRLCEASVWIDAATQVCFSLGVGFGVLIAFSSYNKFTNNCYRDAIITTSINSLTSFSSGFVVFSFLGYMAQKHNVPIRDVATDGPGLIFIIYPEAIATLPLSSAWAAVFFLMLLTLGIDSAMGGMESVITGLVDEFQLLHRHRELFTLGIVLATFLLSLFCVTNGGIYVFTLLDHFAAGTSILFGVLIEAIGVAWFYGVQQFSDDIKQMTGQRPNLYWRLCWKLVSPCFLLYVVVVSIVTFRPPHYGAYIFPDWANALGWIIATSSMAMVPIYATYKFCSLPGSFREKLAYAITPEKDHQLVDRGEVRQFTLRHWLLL

Broadly, the IC50 is the concentration that inhibits the measured activity by half. The low end stands for inhibition by little substance, the high end for a need for much substance.

T1 sequence (P23977 whole entry): as above

As to `NCC1C2CCC(CC2)C1c1ccccc1` (stereo in doubt; 5a) [listing 1 of 2 here], the IC50 came out at 1200 nM in assay [1] and 5930 nM in assay [2].

As for `NCC1C2CCC(CC2)C1c1ccccc1` (stereo in doubt; 5a) [listing 2 of 2 here], the Discrimination ratio in assay [3] turned out to be 5.

Take `NCC1C2CCC(CC2)C1c1cccc(Cl)c1` (stereo in doubt; 5b) [listing 1 of 2 here]: the results for the IC50 in assay [1] and in assay [2] were 204 nM and 960 nM, respectively.

With `NCC1C2CCC(CC2)C1c1cccc(Cl)c1` (stereo in doubt; 5b) [listing 2 of 2 here], the Discrimination ratio in assay [3] was 4.7.

As to `NCC1C2CCC(CC2)C1c1ccc(Cl)cc1` (stereo in doubt; 5c) [listing 1 of 2 here], the IC50 in assay [1] came to 71.4 nM; in assay [2], 375 nM.

With `NCC1C2CCC(CC2)C1c1ccc(Cl)cc1` (stereo in doubt; 5c) [listing 2 of 2 here], the Discrimination ratio in assay [3] stood at 5.2.

Take `NCC1C2CCC(CC2)C1c1ccc(Cl)c(Cl)c1` (stereo in doubt; 5d) [listing 1 of 2 here]: the 50% inhibitory concentration (IC50) in assay [1] amounted to 37.5 nM; in assay [2], 97.5 nM.

Consider `NCC1C2CCC(CC2)C1c1ccc(Cl)c(Cl)c1` (stereo in doubt; 5d) [listing 2 of 2 here], for which the Discrimination ratio in assay [3] stood at 2.6.

As to `CN(C)CC1C2CCC(CC2)C1c1ccccc1` (stereo in doubt; 6a) [listing 1 of 2 here], the concentration for half-maximal inhibition (IC50) in assay [1] was found to be 191 nM; in assay [2], 840 nM.

As for `CN(C)CC1C2CCC(CC2)C1c1ccccc1` (stereo in doubt; 6a) [listing 2 of 2 here], the Discrimination ratio in assay [3] was found to be 4.4.

As for `CN(C)CC1C2CCC(CC2)C1c1cccc(Cl)c1` (stereo in doubt; 6b) [listing 1 of 2 here], the IC50 in assay [1] came out at 36.8 nM; in assay [2], 186 nM.

For `CN(C)CC1C2CCC(CC2)C1c1cccc(Cl)c1` (stereo in doubt; 6b) [listing 2 of 2 here], in assay [3], the Discrimination ratio was determined as 5.1.

In the case of `CN(C)CC1C2CCC(CC2)C1c1ccc(Cl)c(Cl)c1` (stereo in doubt; 6d) [listing 1 of 2 here], the values for the 50% inhibitory concentration (IC50) in assay [1] and in assay [2] were 21.3 nM and 56.3 nM, respectively.

For the compound `CN(C)CC1C2CCC(CC2)C1c1ccc(Cl)c(Cl)c1` (stereo in doubt; 6d) [listing 2 of 2 here], in assay [3], the Discrimination ratio came out at 2.6.

In the case of `NCC1C2CCC(CC2)C1c1ccccc1` (stereo in doubt; 7a) [listing 1 of 2 here], the figures for the half-maximal inhibitory concentration (IC50) in assay [1] and in assay [2] were 270 nM and 1480 nM, respectively.

For `NCC1C2CCC(CC2)C1c1ccccc1` (stereo in doubt; 7a) [listing 2 of 2 here], the Discrimination ratio in assay [3] turned out to be 5.5.

With `NCC1C2CCC(CC2)C1c1cccc(Cl)c1` (stereo in doubt; 7b) [listing 1 of 2 here], the values for the IC50 in assay [1] and in assay [2] were 117 nM and 430 nM, respectively.

On to `NCC1C2CCC(CC2)C1c1cccc(Cl)c1` (stereo in doubt; 7b) [listing 2 of 2 here], for which the Discrimination ratio in assay [3] came out at 3.7.

For `NCC1C2CCC(CC2)C1c1ccc(Cl)cc1` (stereo in doubt; 7c) [listing 1 of 2 here], the 50% inhibitory concentration (IC50) in assay [1] amounted to 12.9 nM; in assay [2], 68.3 nM.

For the compound `NCC1C2CCC(CC2)C1c1ccc(Cl)cc1` (stereo in doubt; 7c) [listing 2 of 2 here], the Discrimination ratio in assay [3] was 5.3.

Turning to `NCC1C2CCC(CC2)C1c1ccc(Cl)c(Cl)c1` (stereo in doubt; 7d) [listing 1 of 2 here], the IC50 is 21.5 nM in assay [1] and 34 nM in assay [2].

Regarding `NCC1C2CCC(CC2)C1c1ccc(Cl)c(Cl)c1` (stereo in doubt; 7d) [listing 2 of 2 here], the Discrimination ratio in assay [3] was 1.6.

In the case of `CN(C)CC1C2CCC(CC2)C1c1ccccc1` (stereo in doubt; 8a) [listing 1 of 2 here], the values for the half-maximal inhibitory concentration (IC50) in assay [1] and in assay [2] were 313 nM and 980 nM, respectively.

As for `CN(C)CC1C2CCC(CC2)C1c1ccccc1` (stereo in doubt; 8a) [listing 2 of 2 here], the Discrimination ratio in assay [3] turned out to be 3.1.

As to `CN(C)CC1C2CCC(CC2)C1c1cccc(Cl)c1` (stereo in doubt; 8b) [listing 1 of 2 here], the figures for the IC50 in assay [1] and in assay [2] were 86 nM and 283 nM, respectively.

For `CN(C)CC1C2CCC(CC2)C1c1cccc(Cl)c1` (stereo in doubt; 8b) [listing 2 of 2 here], in assay [3], the Discrimination ratio is 3.3.

Turning to `CN(C)CC1C2CCC(CC2)C1c1ccc(Cl)c(Cl)c1` (stereo in doubt; 8d) [listing 1 of 2 here], the IC50 in assay [1] turned out to be 14.2 nM; in assay [2], 29.3 nM.

For `CN(C)CC1C2CCC(CC2)C1c1ccc(Cl)c(Cl)c1` (stereo in doubt; 8d) [listing 2 of 2 here], the Discrimination ratio in assay [3] is 2.1.

In the case of `NCC1C2CCC(C2)C1c1ccccc1` (stereo in doubt; 9a) [listing 1 of 2 here], the IC50 in assay [1] was 340 nM; in assay [2], 2220 nM.

As for `NCC1C2CCC(C2)C1c1ccccc1` (stereo in doubt; 9a) [listing 2 of 2 here], the Discrimination ratio in assay [3] turned out to be 6.5.

Consider `NCC1C2CCC(C2)C1c1cccc(Cl)c1` (stereo in doubt; 9b) [listing 1 of 2 here], for which the IC50 in assay [1] was found to be 149 nM; in assay [2] it was 758 nM.

In the case of `NCC1C2CCC(C2)C1c1cccc(Cl)c1` (stereo in doubt; 9b) [listing 2 of 2 here], the Discrimination ratio in assay [3] came to 5.1.

`NCC1C2CCC(C2)C1c1ccc(Cl)cc1` (stereo in doubt; 9c) [listing 1 of 2 here]: the 50% inhibitory concentration (IC50) in assay [1] worked out at 46 nM; in assay [2], 230 nM.

For `NCC1C2CCC(C2)C1c1ccc(Cl)cc1` (stereo in doubt; 9c) [listing 2 of 2 here], the Discrimination ratio in assay [3] stood at 5.

With `NCC1C2CCC(C2)C1c1ccc(Cl)c(Cl)c1` (stereo in doubt; 9d) [listing 1 of 2 here], the IC50 in assay [1] is 11.6 nM; in assay [2] it was 58 nM.

In the case of `NCC1C2CCC(C2)C1c1ccc(Cl)c(Cl)c1` (stereo in doubt; 9d) [listing 2 of 2 here], the Discrimination ratio in assay [3] was determined as 5.

Regarding `COc1ccccc1C1C2CCC(C2)C1CN` (stereo in doubt; 9e) [listing 1 of 2 here], the half-maximal inhibitory concentration (IC50) in assay [1] was found to be 11600 nM; in assay [2] it was 36600 nM.

In the case of `COc1ccccc1C1C2CCC(C2)C1CN` (stereo in doubt; 9e) [listing 2 of 2 here], the Discrimination ratio in assay [3] turned out to be 3.1.

With `COc1cccc(C2C3CCC(C3)C2CN)c1` (stereo in doubt; 9f), in assay [3], the Discrimination ratio is 3.3.

For the compound `COc1ccc(C2C3CCC(C3)C2CN)cc1` (stereo in doubt; 9g), the Discrimination ratio in assay [3] was determined as 4.8.

For `CN(C)CC1C2CCC(C2)C1c1ccccc1` (stereo in doubt; 10a), the Discrimination ratio in assay [3] came out at 2.1.

Regarding `NCC1C2CCC(C2)C1c1ccccc1` (stereo in doubt; 11a), the Discrimination ratio in assay [3] came to 3.1.

Take `NCC1C2CCC(C2)C1c1cccc(Cl)c1` (stereo in doubt; 11b): the Discrimination ratio in assay [3] stood at 3.3.

With `NCC1C2CCC(C2)C1c1ccc(Cl)cc1` (stereo in doubt; 11c), the Discrimination ratio in assay [3] was 2.9.

As for `NCC1C2CCC(C2)C1c1ccc(Cl)c(Cl)c1` (stereo in doubt; 11d), in assay [3], the Discrimination ratio turned out to be 2.9.

Consider `COc1ccccc1C1C2CCC(C2)C1CN` (stereo in doubt; 11e), for which the Discrimination ratio in assay [3] is 5.3.

As to `COc1cccc(C2C3CCC(C3)C2CN)c1` (stereo in doubt; 11f), the Discrimination ratio in assay [3] was found to be 3.3.

With `COc1ccc(C2C3CCC(C3)C2CN)cc1` (stereo in doubt; 11g), the Discrimination ratio in assay [3] is 4.2.

In the case of `CN(C)CC1C2CCC(C2)C1c1ccccc1` (stereo in doubt; 12a), in assay [3], the Discrimination ratio was 1.7.

As to `NCC1C2CCC(C2)C1c1ccccc1` (stereo in doubt; 13a), the Discrimination ratio in assay [3] came out at 4.3.

Turning to `NCC1C2CCC(C2)C1c1ccc(Cl)cc1` (stereo in doubt; 13c), the Discrimination ratio in assay [3] was 5.3.

With `NCC1C2CCC(C2)C1c1ccc(Cl)c(Cl)c1` (stereo in doubt; 13d), the Discrimination ratio in assay [3] was 4.6.

Consider `COc1ccc(C2C3CCC(C3)C2CN)cc1` (stereo in doubt; 13g), for which, in assay [3], the Discrimination ratio worked out at 4.6.

On to `CN(C)CC1C2CCC(C2)C1c1ccccc1` (stereo in doubt; 14a), for which, in assay [3], the Discrimination ratio came out at 1.3.

Consider `NCC1C2CCC(C2)C1c1ccccc1` (stereo in doubt; 15a), for which, in assay [3], the Discrimination ratio worked out at 3.5.

Regarding `NCC1C2CCC(C2)C1c1ccc(Cl)cc1` (stereo in doubt; 15c), in assay [3], the Discrimination ratio was 4.5.

The values above are taken from ChEMBL document CHEMBL1132169 (J Med Chem, 1999).
